Test results published in paper PMC8378262 (Journal of controlled release : official journal of the …, 2021).

System: Sprague Dawley rats
Experiment: Mean systemic arterial pressure
Type: in vivo
Conditions: healthy rats, intravenous 3 mg/kg

SMILES | duration of the reduction in mSAP after injection [min] | maximum reduction of mSAP from baseline (within 30 min) [%] | change in mSAP (until 6 h after injection)
O=S(=O)(c1cccc2cnccc12)N1CCCNCC1 [Fasudil, reference compound] | 90 | 38.6±8.4 | –
O=[N+]([O-])c1ccc(COc2nccc3c(S(=O)(=O)N4CCCNCC4)cccc23)cc1 [FasPRO, 5-((1,4-diazepan-1-yl)sulfonyl)-1-((4-nitrobenzyl)oxy)isoquinoline] | – | – | did not produce any changes in mSAP
